Experimental data from article PMC4305095, “Characterization of Aspergillus aculeatus β-glucosidase 1 accelerating cellulose hydrolysis with Trichoderma cellulase system” (AMB Express, 2015).

Biological target: T1, rAaBGL1 (Aspergillus aculeatus β-glucosidase 1) (Aspergillus aculeatus, UniProt P48825)
T1 construct: full AaBGL1 gene amplified from A. aculeatus genomic DNA, own signal peptide, no tag mentioned; expressed in Aspergillus oryzae niaD300, released from cell surface
T1 sequence (P48825 20-860): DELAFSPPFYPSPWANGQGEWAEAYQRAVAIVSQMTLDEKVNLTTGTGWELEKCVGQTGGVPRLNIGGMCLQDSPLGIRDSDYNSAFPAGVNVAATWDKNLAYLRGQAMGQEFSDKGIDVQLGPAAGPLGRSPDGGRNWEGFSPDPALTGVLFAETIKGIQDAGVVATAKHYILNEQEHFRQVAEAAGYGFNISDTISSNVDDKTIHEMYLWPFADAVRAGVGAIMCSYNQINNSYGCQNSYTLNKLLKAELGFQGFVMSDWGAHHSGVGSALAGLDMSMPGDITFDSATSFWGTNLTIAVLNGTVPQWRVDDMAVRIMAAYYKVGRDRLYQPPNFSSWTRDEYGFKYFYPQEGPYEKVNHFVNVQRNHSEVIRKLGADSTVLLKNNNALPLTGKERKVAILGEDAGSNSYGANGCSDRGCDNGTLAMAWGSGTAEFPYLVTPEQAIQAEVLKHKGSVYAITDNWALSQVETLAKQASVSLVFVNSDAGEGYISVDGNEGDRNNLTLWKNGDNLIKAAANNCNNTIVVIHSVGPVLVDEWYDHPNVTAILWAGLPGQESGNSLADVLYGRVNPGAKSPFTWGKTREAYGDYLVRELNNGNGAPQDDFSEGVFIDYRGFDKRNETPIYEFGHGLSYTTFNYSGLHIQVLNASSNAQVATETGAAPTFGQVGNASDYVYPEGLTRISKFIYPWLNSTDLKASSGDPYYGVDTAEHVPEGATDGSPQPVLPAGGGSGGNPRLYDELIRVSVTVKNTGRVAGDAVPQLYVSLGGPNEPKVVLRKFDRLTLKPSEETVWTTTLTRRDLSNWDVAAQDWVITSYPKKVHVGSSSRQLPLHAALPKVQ
Assay: pNP-Glc hydrolysis, absorbance […] nm, Dixon plot
Assay type: biochemical
Conditions: 0.1-0.4 mM pNP-Glc, 20 mM sodium acetate pH 5.0, 37°C; competitive

`OC[C@H]1OC(O)[C@H](O)[C@@H](O)[C@@H]1O` (stereo partly shown) [glucose] was tested, and the Ki was 9.99 ± 0.94 mM.
